Reference: the NIST ThermoML archive (doi:10.1007/s10765-009-0593-3)
Numbers after ± are expanded uncertainties.

Experiment: xn = mol fraction of the nth substance listed
Conditions: 101 kPa, Liquid; for speed of sound: Pulse-echo method

CCCOCC(C)OCC(C)O (stereo not given) [1-(1-methyl-2-propoxyethoxy)-2-propanol] + CCCCN
Conditions	mass density, 288.15 K [kg/m3]	mass density, 293.15 K [kg/m3]	mass density, 298.15 K [kg/m3]	mass density, 303.15 K [kg/m3]	mass density, 308.15 K [kg/m3]	speed of sound, 288.15 K [m/s]	speed of sound, 293.15 K [m/s]	speed of sound, 298.15 K [m/s]	speed of sound, 303.15 K [m/s]	speed of sound, 308.15 K [m/s]
x1 = 0.1119	781.657 ± 0.5	776.972 ± 0.51	772.263 ± 0.51	767.527 ± 0.52	762.757 ± 0.53	1299.1 ± 0.83	1277.8 ± 0.82	1256.7 ± 0.82	1235.5 ± 0.81	1214.2 ± 0.81
x1 = 0.1625	797.6 ± 0.48	792.951 ± 0.48	788.269 ± 0.49	783.562 ± 0.5	778.83 ± 0.5	1301.8 ± 0.83	1281 ± 0.83	1260.2 ± 0.82	1239.5 ± 0.81	1218.7 ± 0.81
x1 = 0.2153	812.62 ± 0.45	807.989 ± 0.46	803.334 ± 0.47	798.647 ± 0.47	793.946 ± 0.48	1304.3 ± 0.83	1283.9 ± 0.83	1263.4 ± 0.82	1243.2 ± 0.81	1222.8 ± 0.81
x1 = 0.2414	819.423 ± 0.44	814.802 ± 0.45	810.159 ± 0.46	805.481 ± 0.46	800.782 ± 0.47	1305.4 ± 0.83	1285.2 ± 0.83	1264.8 ± 0.82	1244.8 ± 0.81	1224.6 ± 0.81
x1 = 0.3043	834.258 ± 0.42	829.657 ± 0.43	825.032 ± 0.43	820.381 ± 0.44	815.702 ± 0.45	1307.7 ± 0.83	1287.9 ± 0.83	1267.8 ± 0.82	1248.3 ± 0.81	1228.4 ± 0.81
x1 = 0.35	843.808 ± 0.41	839.22 ± 0.41	834.611 ± 0.42	829.962 ± 0.43	825.299 ± 0.43	1309.1 ± 0.83	1289.5 ± 0.83	1269.7 ± 0.82	1250.3 ± 0.82	1230.7 ± 0.81
x1 = 0.4162	856.225 ± 0.39	851.642 ± 0.39	847.04 ± 0.4	842.409 ± 0.41	837.754 ± 0.41	1310.7 ± 0.83	1291.4 ± 0.83	1271.9 ± 0.82	1252.8 ± 0.82	1233.4 ± 0.81
x1 = 0.4519	862.336 ± 0.38	857.764 ± 0.38	853.179 ± 0.39	848.559 ± 0.4	843.907 ± 0.41	1311.3 ± 0.83	1292.2 ± 0.83	1272.8 ± 0.82	1253.8 ± 0.82	1234.6 ± 0.81
x1 = 0.4946	869.26 ± 0.37	864.701 ± 0.37	860.118 ± 0.38	855.511 ± 0.39	850.865 ± 0.39	1311.9 ± 0.83	1292.9 ± 0.83	1273.7 ± 0.82	1254.8 ± 0.82	1235.7 ± 0.81
x1 = 0.547	877.184 ± 0.35	872.638 ± 0.36	868.071 ± 0.37	863.48 ± 0.38	858.867 ± 0.38	1312.4 ± 0.83	1293.5 ± 0.83	1274.5 ± 0.82	1255.8 ± 0.82	1236.8 ± 0.81
x1 = 0.5938	883.779 ± 0.34	879.25 ± 0.35	874.697 ± 0.36	870.123 ± 0.37	865.527 ± 0.37	1312.6 ± 0.83	1293.8 ± 0.83	1275 ± 0.82	1256.3 ± 0.82	1237.5 ± 0.81
x1 = 0.6567	891.947 ± 0.33	887.44 ± 0.34	882.917 ± 0.35	878.364 ± 0.35	873.793 ± 0.36	1312.5 ± 0.83	1293.9 ± 0.83	1275.2 ± 0.82	1256.6 ± 0.82	1237.9 ± 0.81
x1 = 0.6997	897.047 ± 0.33	892.555 ± 0.33	888.041 ± 0.34	883.505 ± 0.35	878.95 ± 0.35	1312.2 ± 0.83	1293.7 ± 0.83	1275.1 ± 0.82	1256.5 ± 0.82	1238 ± 0.81
x1 = 0.7665	904.096 ± 0.32	899.635 ± 0.32	895.15 ± 0.33	890.644 ± 0.34	886.119 ± 0.34	1311.5 ± 0.83	1293 ± 0.83	1274.6 ± 0.82	1256.1 ± 0.82	1237.7 ± 0.81
x1 = 0.8068	907.864 ± 0.31	903.41 ± 0.32	898.94 ± 0.32	894.449 ± 0.33	889.942 ± 0.34	1310.8 ± 0.83	1292.3 ± 0.83	1274.1 ± 0.82	1255.7 ± 0.82	1237.4 ± 0.81
x1 = 0.8466	911.283 ± 0.3	906.844 ± 0.31	902.376 ± 0.32	897.903 ± 0.32	893.412 ± 0.33	1310 ± 0.83	1291.6 ± 0.83	1273.4 ± 0.82	1255.2 ± 0.82	1236.9 ± 0.81
x1 = 0.9038	915.886 ± 0.3	911.457 ± 0.3	906.999 ± 0.31	902.546 ± 0.32	898.065 ± 0.32	1308.6 ± 0.83	1290.3 ± 0.83	1272.1 ± 0.82	1254.2 ± 0.82	1236.1 ± 0.81
x1 = 0.9528	919.898 ± 0.29	915.486 ± 0.3	911.061 ± 0.3	906.607 ± 0.31	902.137 ± 0.32	1307.2 ± 0.83	1288.9 ± 0.83	1270.9 ± 0.82	1253.1 ± 0.82	1235.2 ± 0.81
